For orientation: IC50 means the concentration that inhibits the measured activity by half.

Bounds are passed on as bounds.

In the first test the target is T1, CDK2 (Homo sapiens, UniProt P24941).
T1 construct: endogenous in cells; host or cells: OVCAR3 cells
The experiment in a line: Phospho-RB measurement in OVCAR3 cells (HTRF phospho-RB cellular kit). The format is cell-based. Particulars: inhibition of RB phosphorylation at S807/811 (HTRF), 24 h compound treatment. In outline: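 IC50 came from a four-parameter logistic fit of the DMSO-normalized TR-FRET ratio (665/620 nm). That ratio reflects RB phosphorylation at S807/811, read with an HTRF antibody pair 4 h after adding lysate at room temperature.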
A general note: Time-resolved FRET reads energy transfer from a long-lived donor to a nearby acceptor.
Turning to `CC(C)(C)c1nc(-c2cccc(NS(=O)(=O)N3CCn4cnnc4C3)c2F)c(-c2ccnc(NC3CCN(S(C)(=O)=O)CC3)n2)s1` [Example 90, N-(3-(2-(tert-butyl)-5-(2-((1-(methylsulfonyl)-piperidin-4-yl)amino)-pyrimidin-4-yl)thiazol-4-yl)~2~fluoro-phenyl)-5,6-dihydro-[1,2,4] triazolo-[4,3-a]pyrazine-7(8H)-sulfonamide], the half-inhibitory concentration (IC50) was over 10000 nM.

The test is the same for the next values; noted with them: inhibition of RB phosphorylation at S807/811 (HTRF, TR-FRET ratio 665/620), 24 h compound treatment, 0.3 to 10,000 nM.
For `CC(C)(C)c1nc(-c2cccc(NS(=O)(=O)N3CCc4ccc(C(C)(C)O)cc43)c2F)c(-c2ccnc(NC3CC4(C3)CS(=O)(=O)C4)n2)s1` [Example 257, N-(3-(2-(tert-butyl)-5-(2-((2,2-dioxido-2-thiaspiro[3.3]heptan-6-yl)amino)-pyrimidin-4-yl)thiazol-4-yl)-2-fluoro-phenyl)-6-(2-hydroxypropan-2-yl)indoline-1-sulfonamide], the IC50 worked out at 2960 nM.

Regarding `CNc1cccc2c1CN(S(=O)(=O)Nc1cccc(-c3nc(C(C)(C)C)sc3-c3ccnc(NC4CC5(C4)CS(=O)(=O)C5)n3)c1F)C2` [Example 207, N-(3-(2-(tert-butyl)-5-(2-((2,2-dioxido-2-thiaspiro[3.3]heptan-6-yl)amino)-pyrimidin-4-yl)thiazol-4-yl)-2-fluorophenyl)-4-(methylamino)-isoindoline-2-sulfonamide], the IC50 was determined as 199 nM.

On to `CN1CCN(S(=O)(=O)Nc2cccc(-c3nc(C45CC(C4)C5)sc3-c3ccnc(NC4CC5(C4)CS(=O)(=O)C5)n3)c2F)c2ccccc21` [Example 274, N-(3-(2-(bicyclo [1.1.1]pentan-1-yl)-5-(2-((2,2-dioxido-2-thiaspiro[3.3]heptan-6-yl)amino)-pyrimidin-4-yl)thiazol-4-yl)-2-fluorophenyl)-4-methyl-3,4-dihydro-quinoxaline-1(2H)-sulfonamide], for which the IC50 was found to be 130 nM.

Consider `CC(C)(C)c1nc(-c2cccc(NS(=O)(=O)N3CCc4ccc(C#N)cc43)c2F)c(-c2ccnc(NC3CCN(S(C)(=O)=O)CC3)n2)s1` [Example 118, N-(3-(2-(tert-butyl)-5-(2-((1-(methylsulfonyl)-piperidin-4-yl)amino)-pyrimidin-4-yl)thiazol-4-yl)-2-fluorophenyl)-6-cyanoindoline-1-sulfonamide], for which the 50% inhibitory concentration (IC50) was found to be 66.9 nM.

Take `CC(C)(C)c1nc(-c2cccc(NS(=O)(=O)N3Cc4ccnc(O)c4C3)c2F)c(-c2ccnc(NC3CCN(S(C)(=O)=O)CC3)n2)s1` [Example 239, N-(3-(2-(tert-butyl)-5-(2-((1-(methylsulfonyl)-piperidin-4-yl)amino)-pyrimidin-4-yl)thiazol-4-yl)-2-fluoro-phenyl)-4-hydroxy-1,3-dihydro-2H-pyrrolo[3,4-c] pyridine-2-sulfonamide]: the IC50 turned out to be 4690 nM.

On to `CC(C)(C)c1nc(-c2cccc(NS(=O)(=O)N3CCC4(CC4)C3)c2F)c(-c2ccnc(NC3CCN(S(C)(=O)=O)CC3)n2)s1` [Example 166, N-(3-(2-(tert-butyl)-5-(2-((1-(methylsulfonyl)-piperidin-4-yl)amino)-pyrimidin-4-yl)thiazol-4-yl)-2-fluoro-phenyl)-5-azaspiro[2.4] heptane-5-sulfonamide], for which the IC50 was found to be 277 nM.

On to `CN1CCN(S(=O)(=O)N2CCC(Nc3nccc(-c4sc(C(C)(C)C)nc4-c4cccc(NS(=O)(=O)N5CCc6c(C#N)cccc65)c4F)n3)CC2)CC1` [Example 125, N-(3-(2-(tert-butyl)-5-(2-((1-((4-methyl-piperazin-1-yl)sulfonyl)piperidin-4-yl)amino)-pyrimidin-4-yl)thiazol-4-yl)-2-fluorophenyl)-4-cyanoindoline-1-sulfonamide], for which the IC50 turned out to be 204 nM.

Consider `CC(C)(C)c1nc(-c2cccc(NS(=O)(=O)N3Cc4cccc(F)c4C3)c2F)c(-c2ccnc(NC3CCN(S(C)(=O)=O)CC3)n2)s1` [Example 71, N-(3-(2-(tert-butyl)-5-(2-((1-(methylsulfonyl)-piperidin-4-yl)amino)-pyrimidin-4-yl)thiazol-4-yl)-2-fluoro-phenyl)-4-fluoroisoindoline-2-sulfonamide], for which the IC50 is 76 nM.

As to `CC(C)(C)c1nc(-c2cccc(NS(=O)(=O)N3Cc4ccc(C#N)cc4C3)c2F)c(-c2ccnc(NC3CCN(S(=O)(=O)N4CCNCC4)CC3)n2)s1` [Example 149, N-(3-(2-(tert-butyl)-5-(2-((1-(piperazin-1-ylsulfonyl)piperidin-4-yl)amino)-pyrimidin-4-yl)thiazol-4-yl)-2-fluoro-phenyl)-5-cyanoisoindoline-2-sulfonamide], the IC50 was found to be 488 nM.

`CC(C)(C)c1nc(-c2cccc(NS(=O)(=O)N3CCc4cc(C#N)ccc43)c2F)c(-c2ccnc(NC3CC4(C3)CS(=O)(=O)C4)n2)s1` [Example 195, N-(3-(2-(tert-butyl)-5-(2-((2,2-dioxido-2-thiaspiro[3.3]heptan-6-yl)amino)-pyrimidin-4-yl)thiazol-4-yl)-2-fluoro-phenyl)-5-cyanoindoline-1-sulfonamide]: the IC50 is 320 nM.

For `O=S1(=O)CC2(CC(Nc3nccc(-c4sc(N5C6CCC5COC6)nc4-c4cccc(NS(=O)(=O)N5Cc6ccccc6C5)c4F)n3)C2)C1` [Example 4, N-(3-(2-(3-oxa-8-azabicyclo[3.2.1]octan-8-yl)-5-(2-((2,2-dioxido-2-thiaspiro-[3.3]heptan-6-yl)amino)pyrimidin-4-yl)thiazol-4-yl)-2-fluorophenyl)-isoindoline-2-sulfonamide], the IC50 is 138 nM.

As for `CC(C)(C)c1nc(-c2cccc(NS(=O)(=O)N3CCc4ccc(-c5ccccc5)cc43)c2F)c(-c2ccnc(NC3CCN(S(C)(=O)=O)CC3)n2)s1` [Example 218, N-(3-(2-(tert-butyl)-5-(2-((1-(methylsulfonyl)-piperidin-4-yl)amino)-pyrimidin-4-yl)thiazol-4-yl)-2-fluoro-phenyl)-6-phenylindoline-1-sulfonamide], the IC50 worked out at 1300 nM.

In the case of `O=S1(=O)CC2(CC(Nc3nccc(-c4sc(C56CC(C5)C6)nc4-c4cccc(NS(=O)(=O)N5CCCc6ccccc6C5)c4F)n3)C2)C1` [Example 50, N-(3-(2-(bicyclo [1.1.1]pentan-1-yl)-5-(2-((2,2-dioxido-2-thiaspiro[3.3]heptan-6-yl)amino)-pyrimidin-4-yl)thiazol-4-yl)-2-fluorophenyl)-1,3,4,5-tetrahydro-2H-benzo[c]azepine-2-sulfonamide], the IC50 stood at 228 nM.

Take `CC(C)(C)c1nc(-c2cccc(NS(=O)(=O)N3Cc4cccc(OCC#N)c4C3)c2F)c(-c2ccnc(NC3CCN(S(C)(=O)=O)CC3)n2)s1` [Example 247, N-(3-(2-(tert-butyl)-5-(2-((1-(methylsulfonyl)-piperidin-4-yl)amino)-pyrimidin-4-yl)thiazol-4-yl)-2-fluoro-phenyl)-4-(cyanomethoxy)-isoindoline-2-sulfonamide]: the IC50 is 117 nM.

For the molecule `CC(C)(C)c1nc(-c2cccc(NS(=O)(=O)N3Cc4cccc(OC(F)F)c4C3)c2F)c(-c2ccnc(NC3CC4(C3)CS(=O)(=O)C4)n2)s1` [Example 205, N-(3-(2-(tert-butyl)-5-(2-((2,2-dioxido-2-thiaspiro[3.3]heptan-6-yl)amino)-pyrimidin-4-yl)thiazol-4-yl)-2-fluorophenyl)-4-(difluoromethoxy)-isoindoline-2-sulfonamide], the IC50 turned out to be 40.4 nM.

As to `CC1CCCCN1S(=O)(=O)Nc1cccc(-c2nc(C(C)(C)C)sc2-c2ccnc(NC3CCN(S(C)(=O)=O)CC3)n2)c1F` (stereo not shown) [Example 66, N-(3-(2-(tert-butyl)-5-(2-((1-(methylsulfonyl)-piperidin-4-yl)amino)-pyrimidin-4-yl)thiazol-4-yl)-2-fluoro-phenyl)-2-methylpiperidine-1-sulfonamide], the half-inhibitory concentration (IC50) is over 5000 nM.

As for `CC(C)(C)c1nc(-c2cccc(NS(=O)(=O)N3CCc4ccc(C#N)cc43)c2F)c(-c2ccnc(N[C@H]3[C@@H]4CS(=O)(=O)C[C@@H]43)n2)s1` [Example 223, N-(3-(2-(tert-butyl)-5-(2-(((1R,5S,6r)-3,3-dioxido-3-thiabicyclo [3.1.0]hexan-6-yl)amino)pyrimidin-4-yl)thiazol-4-yl)-2-fluorophenyl)-6-cyanoindoline-1-sulfonamide], the IC50 was found to be 89 nM.

As to `CNCc1ccc2c(c1)CCN2S(=O)(=O)Nc1cccc(-c2nc(C(C)(C)C)sc2-c2ccnc(NC3CCN(S(C)(=O)=O)CC3)n2)c1F` [Example 159, N-(3-(2-(tert-butyl)-5-(2-((1-(methylsulfonyl)-piperidin-4-yl)amino)-pyrimidin-4-yl)thiazol-4-yl)-2-fluoro-phenyl)-5-((methylamino)methyl)-indoline-1-sulfonamide], the IC50 was 4080 nM.

Turning to `CC(C)(C)c1nc(-c2cccc(NS(=O)(=O)N3Cc4ccc(C(F)F)cc4C3)c2F)c(-c2ccnc(NC3CCN(S(C)(=O)=O)CC3)n2)s1` [Example 254, N-(3-(2-(tert-butyl)-5-(2-((1+ (methylsulfonyl)-piperidin-4-yl)amino)-pyrimidin-4-yl)thiazol-4-yl)-2-fluoro-phenyl)-5-(difluoromethyl)-isoindoline-2-sulfonamide], the IC50 came out at 317 nM.

As to `CC(C)(C)c1nc(-c2cccc(NS(=O)(=O)N3Cc4cccc(C(F)F)c4C3)c2F)c(-c2ccnc(NC3CC4(C3)CS(=O)(=O)C4)n2)s1` [Example 262, N~(3-(2-(tert-butyl)-5-(2-((2,2-dioxido-2-thiaspiro[3.3]heptan-6-yl)amino)-pyrimidin-4-yl)thiazol-4-yl)-2-fluoro-phenyl)-4-(difluoromethyl)-isoindoline-2-sulfonamide], the IC50 came to 31.2 nM.

With `CC(C)Oc1cccc2c1CN(S(=O)(=O)Nc1cccc(-c3nc(C(C)(C)C)sc3-c3ccnc(NC4CC5(C4)CS(=O)(=O)C5)n3)c1F)C2` [Example 226, N-(3-(2-(tert-butyl)-5-(2-((2,2-dioxido-2-thiaspiro[3.3]heptan-6-yl)amino)-pyrimidin-4-yl)thiazol-4-yl)~2~fluoro-phenyl)-4-isopropoxyiso-indoline-2-sulfonamide], the IC50 stood at 527 nM.

The values are drawn from patent publication US20260274833A1 (NiKang Therapeutics, Inc., priority 2022, published 2026).
